Assay [1] relates to Human hepatoma cell lines (HepG2). In words: MTT cell viability assay. The settings on record: for IC50: Homo sapiens, HepG2 cells, 48 h exposure; for inhibition against liver cancer cells compared to Compound S: versus Compound S. The class given is cell-based. The text has this:
The MTT (3-(4, 5-dimethylthiazol-2-yl)-2,5-diphenyl tetrazolium bromide) cell viability assay is a colorimetric assay system, which measures the reduction of a tetrazolium component (MTT) into an insoluble blue/purple colored formazan product by succinate tetrazolium reductase in mitochondria of viable cells. The absorbance of the complex is read spectrophotometrically and is directly proportional to the number of live or viable cells. Formazan formation can therefore be used to assess and determine the survival rate of cells.
Human hepatoma cell lines (HepG2) were obtained from American Type Culture Collection (Rockville, Md., USA) and cultured in Minimum Essential Medium Alpha (Invitrogen/Gibco BRL, Grand Island, N.Y., USA) at 37° C. in 5% CO2 in culture media supplemented with 10% fetal bovine serum (FBS) (Invitrogen/Gibco BRL) and 100 U/ml streptomycin and penicillin (Invitrogen/Gibco BRL).
100 μL of HepG2 cells (1×10^4 cells per well) were seeded in 96 well plates and pre-incubated. After 24 h, the cells were exposed to various concentrations of Compounds 1-11, and the known compound 4-hydroxy-2,3-dimethoxy-6-methyl-5-(3,7,11-trimethyldodeca-2,6,10-trienyl)cyclohex-2-enone (Compound S) in a volume of 200 μL for 48 h. 20 μL of MTT reagent (5 mg/mL) was added to each well and then incubated in 5% CO2 at 37° C. for 4 h. The media was replaced with 200 μL of DMSO to dissolve the MTT tetrazolium crystal. Absorbance was measured at 570 nm using a microplate reader.

The subject of assay [2] is Human HCC Mahlavu cells. The assay can be described thus: Efficacy test on liver cancer xenograft model. The class given is in vivo, nude mice. The protocol:
[…] nude mice (National Laboratory Animal Center) of four to six weeks old were used and maintained in laminar flow cabinets under pathogen-free condition. Human HCC Mahlavu cells (1×10^6 cells) carrying luciferase gene were re-suspended in 20 μL of PBS containing 50% matrigel (BD Biosciences, MA) and injected into the left lateral liver lobe of athymic nude mice (National Laboratory Animal Center) with 27-gauge needle by sterile techniques (Lu et al., 2007). For bioluminescence imaging, the animals were injected with the luciferase substrate D-luciferin at a dose of 150 mg/kg in 0.2 mL sterile isotonic saline.
Tumor growth and metastatic status was monitored using the Xenogen […] (IVIS) imaging system every two weeks. All images were obtained after intraperitoneal injection of luciferin (100 mg/kg body weight; Synchem, Elk Grove Village, Ill., United States). […] Image analysis and bioluminescence quantification were performed using Living Image software (Caliper Life Sciences, Hopkinton, Mass., United States). […] The body weight was measured twice weekly.
The tumor-bearing mice were treated with vehicle (olive oil) or Compound 1 at 120 mg/kg by oral gavage twice per day and 5 days per week for 4 weeks. The tumor volume was measured twice weekly. ***P<0.005 compared to vehicle control. […]

Each structure is given as a SMILES string. ≈ marks a conversion by molar mass, not a printed value.

`COC1=C(N)[C@@H](O)[C@@H](C/C=C(\C)CC/C=C(\C)CCC=C(C)C)[C@H](C)C1=O` [Compound 1, (4S,5S,6S)-3-amino-4-hydroxy-2-methoxy-6-methyl-5-((2E,6E)-3,7,11-trimethyldodeca-2,6,10-trien-1-yl)cyclohex-2-enone]: in assay [1], 0.13 µg/mL (≈ 0.346 µM) corresponded to half-maximal inhibition (IC50) and the “inhibition against liver cancer cells compared to Compound S” value (“inhibition … compared to Compound S” for short) is on record as “much better unexpected inhibition”. Moreover, in assay [2] (120 mg/kg oral gavage twice per day, 5 days per week for 4 weeks, P<0.005 compared to vehicle control), the tumor size entry is recorded as “decrease of the tumor size”. In addition, the “decrease of tumor mass compared with control” value in assay [2] (120 mg/kg oral gavage, at the end of week 12) is reported as “at least 4 folds”.
`COC1=C(N(C)C)[C@@H](O)[C@@H](C/C=C(\C)CC/C=C(\C)CCC=C(C)C)[C@H](C)C1=O` [Compound 4]: in assay [1], the midpoint of inhibition, the IC50, lay at 0.18 µg/mL (≈ 0.446 µM) and the “inhibition … compared to Compound S” value is “much better unexpected inhibition”.
For `COC1=C(NCCCN)[C@@H](O)[C@@H](C/C=C(\C)CC/C=C(\C)CCC=C(C)C)[C@H](C)C1=O` [Compound 5] the same measures were 0.87 µg/mL (≈ 2.01 µM) and “much better unexpected inhibition”.
Molecule `COC1=C(NCCO)[C@@H](O)[C@@H](C/C=C(\C)CC/C=C(\C)CCC=C(C)C)[C@H](C)C1=O` [Compound 7] registered an IC50 in assay [1] of 1.95 µg/mL (≈ 4.65 µM).
On to `COC1=C(NCc2cccs2)[C@@H](O)[C@@H](C/C=C(\C)CC/C=C(\C)CCC=C(C)C)[C@H](C)C1=O` [Compound 10], for which, in assay [1], half-maximal inhibition (IC50) required 0.91 µg/mL (≈ 1.93 µM) and the “inhibition … compared to Compound S” value was “much better unexpected inhibition”.
Take `COC1=C(NCCc2c[nH]c3ccccc23)[C@@H](O)[C@@H](C/C=C(\C)CC/C=C(\C)CCC=C(C)C)[C@H](C)C1=O` [Compound 11]: 2.29 µg/mL (≈ 4.41 µM) corresponded to half-maximal inhibition in assay [1] (IC50).
`COC1=C(OC)C(O)C(CC=C(C)CCC=C(C)CCC=C(C)C)C(C)C1=O` (stereo not shown) [Compound S, 4-hydroxy-2,3-dimethoxy-6-methyl-5-(3,7,11-trimethyldodeca-2,6,10-trienyl)cyclohex-2-enone, reference compound]: half-maximal inhibition in assay [1] (IC50) was put at 2.4 µg/mL (≈ 6.14 µM).
